From US20250145633A1, “SUBSTITUTED FURANOPYRIMIDINE COMPOUNDS AS PDE1 INHIBITORS” (Dart NeuroScience, LLC, priority 2017, published 2025)

The molecules below were run against human PDE1B enzyme (Homo sapiens (Human), UniProt Q01064) (assay: IMAP TR-FRET PDE1B enzymatic assay). Settings: negative log of half-maximal molar inhibitory concentration; 200 nM FAM-cAMP; values given as bins.
Format: biochemical
In short: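 Full-length GST-tagged human PDE1B (250 pg/well) in IMAP BSA buffer with 10 U/ml calmodulin and 2.5 mM CaCl2; compound pre-incubated 5 min at room temperature, then 200 nM (final) FAM-cAMP for 30 min. IMAP binding reagent/Tb added, 1 h; TR-FRET 520/490 ratio read. IC50 from sigmoidal dose-response fit.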

| Compound | PDE1b (pIC50) |
| --- | --- |
| COc1ccc(CNC(=O)c2c(C)oc3ncnc(NC4(C)CC4)c23)cc1Cl [Example 488, N-[(3-Chloro-4-methoxyphenyl)methyl]-6-methyl-4-[(1-methylcyclopropyl)amino]furo[2,3-d]pyrimidine-5-carboxamide] | >8 |
| Cc1oc2ncnc(NC3(C)CC3)c2c1C(=O)N1CCc2c(ncnc2OCC2CC2)C1 [Example 808, 5-[4-(Cyclopropylmethoxy)-5H,6H,7H,8H-pyrido[3,4-d]pyrimidine-7-carbonyl]-6-methyl-N-(1-methylcyclopropyl)furo[2,3-d]pyrimidin-4-amine] | >8 |
| Cc1oc2ncnc(NC3(C)CC3)c2c1C(=O)NCc1ccc(Cl)nc1 [Example 312, N-[(6-Chloropyridin-3-yl)methyl]-6-methyl-4-[(1-methylcyclopropyl)amino]furo[2,3-d]pyrimidine-5-carboxamide] | >8 |
| Cc1oc2ncnc(NC3(C)CC3)c2c1C(=O)N1CCC(c2ccc(Cl)cn2)C1 (stereo not drawn) [Example 348, 5-[3-(5-Chloropyridin-2-yl)pyrrolidine-1-carbonyl]-6-methyl-N-(1-methylcyclopropyl)furo[2,3-d]pyrimidin-4-amine] | >8 |
| COc1nc(C(C)C)nc2c1CCN(C(=O)c1c(C)oc3ncnc(NC4(C)CC4)c13)C2 [Example 27, 5-[4-Methoxy-2-(propan-2-yl)-5H,6H,7H,8H-pyrido[3,4-d]pyrimidine-7-carbonyl]-6-methyl-N-(1-methylcyclopropyl)furo[2,3-d]pyrimidin-4-amine] | >8 |
| COc1ncc(CNC(=O)c2c(C)oc3ncnc(NC4(C)CC4)c23)cn1 [Example 698, N-[(2-Methoxypyrimidin-5-yl)methyl]-6-methyl-4-[(1-methylcyclopropyl)amino]furo[2,3-d]pyrimidine-5-carboxamide] | >8 |

Same assay, conditions: negative log of half-maximal molar inhibitory concentration; 200 nM FAM-cAMP; values given as bins; read-out: PDE1b (pIC50) (converted)

| Compound | IC50 |
| --- | --- |
| Cc1oc2ncnc(NC3(C)CC3)c2c1C(=O)N1CCCC2(C1)C(=O)Nc1ccccc12 (stereo not drawn) [Example 375, 1′-{6-Methyl-4-[(1-methylcyclopropyl)amino]furo[2,3-d]pyrimidine-5-carbonyl}-1,2-dihydrospiro[indole-3,3′-piperidine]-2-one] | 100 to 1000 nM |
| Cc1oc2ncnc(NC3(C)CC3)c2c1C(=O)NC1(c2cnccn2)CC1 [Example 311, 6-Methyl-4-[(1-methylcyclopropyl)amino]-N-[1-(pyrazin-2-yl)cyclopropyl]furo[2,3-d]pyrimidine-5-carboxamide] | 10 to 100 nM |
| Cc1oc2ncnc(NC3(C)CC3)c2c1C(=O)Nc1ccn(C(C)C)n1 [Example 445, 6-Methyl-4-[(1-methylcyclopropyl)amino]-N-[1-(propan-2-yl)-1H-pyrazol-3-yl]furo[2,3-d]pyrimidine-5-carboxamide] | 10 to 100 nM |
| Cc1nccc(CNC(=O)c2c(C)oc3ncnc(NC4(C)CC4)c23)n1 [Example 625, 6-Methyl-4-[(1-methylcyclopropyl)amino]-N-[(2-methylpyrimidin-4-yl)methyl]furo[2,3-d]pyrimidine-5-carboxamide] | 10 to 100 nM |
| Cc1nc(CNC(=O)c2c(C)oc3ncnc(NC4(C)CC4)c23)cc(=O)[nH]1 [Example 662, 6-Methyl-N-[(2-methyl-6-oxo-1,6-dihydropyrimidin-4-yl)methyl]-4-[(1-methylcyclopropyl)amino]furo[2,3-d]pyrimidine-5-carboxamide] | 10 to 100 nM |
| Cc1ccc2c(n1)CCN(C(=O)c1c(C)oc3ncnc(NC4(C)CC4)c13)C2 [Example 284, 6-Methyl-5-(2-methyl-5,6,7,8-tetrahydro-1,6-naphthyridine-6-carbonyl)-N-(1-methylcyclopropyl)furo[2,3-d]pyrimidin-4-amine] | 10 to 100 nM |
| Cc1oc2ncnc(NC3(C)CC3)c2c1C(=O)N1CC(c2ncc(C(F)(F)F)cc2F)C1 [Example 38, 5-{3-[3-Fluoro-5-(trifluoromethyl)pyridin-2-yl]azetidine-1-carbonyl}-6-methyl-N-(1-methylcyclopropyl)furo[2,3-d]pyrimidin-4-amine] | 10 to 100 nM |
| Cc1oc2ncnc(NC3(C)CC3)c2c1C(=O)N1CCc2cc(Cl)ncc2C1 [Example 642, 5-(6-Chloro-1,2,3,4-tetrahydro-2,7-naphthyridine-2-carbonyl)-6-methyl-N-(1-methylcyclopropyl)furo[2,3-d]pyrimidin-4-amine] | 10 to 100 nM |
| Cc1oc2ncnc(NC3(C)CC3)c2c1C(=O)N1CC(c2nccs2)C1 [Example 33, 6-Methyl-N-(1-methylcyclopropyl)-5-[3-(1,3-thiazol-2-yl)azetidine-1-carbonyl]furo[2,3-d]pyrimidin-4-amine] | 10 to 100 nM |
| COc1ccc(C2CCN(C(=O)c3c(C)oc4ncnc(NC5(C)CC5)c34)CC2)nc1F [Example 530, 5-[4-(6-Fluoro-5-methoxypyridin-2-yl)piperidine-1-carbonyl]-6-methyl-N-(1-methylcyclopropyl)furo[2,3-d]pyrimidin-4-amine] | 10 to 100 nM |
| Cc1oc2ncnc(NC3(C)CC3)c2c1C(=O)N(C)Cc1ncco1 [Example 692, N,6-Dimethyl-4-[(1-methylcyclopropyl)amino]-N-(1,3-oxazol-2-ylmethyl)furo[2,3-d]pyrimidine-5-carboxamide] | 100 to 1000 nM |
| Cc1cccc(CNC(=O)c2c(C)oc3ncnc(NC4(C)CC4)c23)n1 [Example 697, 6-Methyl-4-[(1-methylcyclopropyl)amino]-N-[(6-methylpyridin-2-yl)methyl]furo[2,3-d]pyrimidine-5-carboxamide] | 10 to 100 nM |
| Cc1oc2ncnc(NC3(C)CC3)c2c1C(=O)N1CCc2cnc(F)nc2C1 [Example 307, 5-{2-Fluoro-5H,6H,7H,8H-pyrido[3,4-d]pyrimidine-7-carbonyl}-6-methyl-N-(1-methylcyclopropyl)furo[2,3-d]pyrimidin-4-amine] | 10 to 100 nM |
| Cc1oc2ncnc(NC3(C)CC3)c2c1C(=O)NCc1cnc(F)cn1 [Example 9, N-((5-Fluoropyrazin-2-yl)methyl)-6-methyl-4-((1-methylcyclopropyl)amino)furo[2,3-d]pyrimidine-5-carboxamide] | 10 to 100 nM |
| Cc1oc2ncnc(NC3(C)CC3)c2c1C(=O)N[C@H]1[C@@H]2COC[C@@H]21 [Example 114, 6-Methyl-4-[(1-methylcyclopropyl)amino]-N-[(1R,5S,6R)-3-oxabicyclo[3.1.0]hexan-6-yl]furo[2,3-d]pyrimidine-5-carboxamide] | 10 to 100 nM |
| Cc1oc2ncnc(NC3(C)CC3)c2c1C(=O)NNc1ncc(F)cn1 [Example 363, N′-(5-Fluoropyrimidin-2-yl)-6-methyl-4-[(1-methylcyclopropyl)amino]furo[2,3-d]pyrimidine-5-carbohydrazide] | 100 to 1000 nM |
| Cc1oc2ncnc(NC3(C)CC3)c2c1C(=O)N(C)Cc1ccc(F)cc1 [Example 248, N-[(4-Fluorophenyl)methyl]-N,6-dimethyl-4-[(1-methylcyclopropyl)amino]furo[2,3-d]pyrimidine-5-carboxamide] | 10 to 100 nM |
| Cc1oc2ncnc(NC3(C)CC3)c2c1C(=O)N1CCn2cc(C(F)(F)F)nc2C1 [Example 623, 6-Methyl-N-(1-methylcyclopropyl)-5-[2-(trifluoromethyl)-5H,6H,7H,8H-imidazo[1,2-a]pyrazine-7-carbonyl]furo[2,3-d]pyrimidin-4-amine] | 10 to 100 nM |
| Cc1cc2n(n1)CCN(C(=O)c1c(C)oc3ncnc(NC4(C)CC4)c13)C2 [Example 632, 6-Methyl-5-f{2-methyl-4H,5H,6H,7H-pyrazolo[1,5-a]pyrazine-5-carbonyl}-N-(1-methylcyclopropyl)furo[2,3-d]pyrimidin-4-amine] | 10 to 100 nM |
| COc1ncnc2c1CCN(C(=O)c1c(C)oc3ncnc(NC4(C)CC4)c13)CC2 [Example 629, 5-{4-Methoxy-5H,6H,7H,8H,9H-pyrimido[4,5-d]azepine-7-carbonyl}-6-methyl-N-(1-methylcyclopropyl)furo[2,3-d]pyrimidin-4-amine] | 100 to 1000 nM |
| Cc1oc2ncnc(NC3(C)CC3)c2c1C(=O)N1CCc2cncnc2C1 [Example 471, 6-Methyl-N-(1-methylcyclopropyl)-5-f{5H,6H,7H,8H-pyrido[3,4-d]pyrimidine-7-carbonyl}furo[2,3-d]pyrimidin-4-amine] | 10 to 100 nM |
| Cc1cccc(CNC(=O)c2c(C)oc3ncnc(NC4(C)CC4)c23)c1 [Example 198, 6-Methyl-4-[(1-methylcyclopropyl)amino]-N-[(3-methylphenyl)methyl]furo[2,3-d]pyrimidine-5-carboxamide] | 10 to 100 nM |
| Cc1nc2cc(NC(=O)c3c(C)oc4ncnc(NC5(C)CC5)c34)ccc2o1 [Example 651, 6-Methyl-N-(2-methyl-1,3-benzoxazol-5-yl)-4-[(1-methylcyclopropyl)amino]furo[2,3-d]pyrimidine-5-carboxamide] | 10 to 100 nM |
| Cc1oc2ncnc(NC3(C)CC3)c2c1C(=O)NCCc1nc2cc(F)ccc2n1C [Example 734, N-[2-(5-Fluoro-1-methyl-1H-1,3-benzodiazol-2-yl)ethyl]-6-methyl-4-[(1-methylcyclopropyl)amino]furo[2,3-d]pyrimidine-5-carboxamide] | 10 to 100 nM |
| Cc1oc2ncnc(NC3(C)CC3)c2c1C(=O)NCc1nc2ccc(F)cc2n1C [Example 725, N-[(6-Fluoro-1-methyl-1H-1,3-benzodiazol-2-yl)methyl]-6-methyl-4-[(1-methylcyclopropyl)amino]furo[2,3-d]pyrimidine-5-carboxamide] | 10 to 100 nM |
| Cc1oc2ncnc(NC3(C)CC3)c2c1C(=O)N1CCc2c(ccnc2OCF)C1 [Example 769, 5-[5-(Fluoromethoxy)-1,2,3,4-tetrahydro-2,6-naphthyridine-2-carbonyl]-6-methyl-N-(1-methylcyclopropyl)furo[2,3-d]pyrimidin-4-amine] | 10 to 100 nM |
| Cc1cc(CNC(=O)c2c(C)oc3ncnc(NC4(C)CC4)c23)no1 [Example 113, 6-Methyl-N-[(5-methyl-1,2-oxazol-3-yl)methyl]-4-[(1-methylcyclopropyl)amino]furo[2,3-d]pyrimidine-5-carboxamide] | 10 to 100 nM |
